Converted amounts (≈) assume the structure as drawn.
Assays:
[1] = physchem
Description: Dissociation constant (pKa)

[2] = system: Pasteurella multocida; experiment: Minimum inhibitory concentration against Pasteurella multocida.; format: functional
[3] = species: Mus musculus; experiment: Protective dose at which 50% of infected, treated mice survive; format: functional; conditions: read-out: PD50
[4] = not given; remark: listed apart in the source
[5] = not given; remark: listed apart in the source
[6] = system: Pasteurella multocida; format: functional
Description: Log value of the Minimum inhibitory concentration against Pasteurella multocida.

[7] = physchem; remark: listed apart in the source
Description: Dissociation constant (pKa)

[8] = physchem; remark: listed apart in the source
Description: Dissociation constant (pKa)

[9] = system: Pasteurella multocida; experiment: Minimum inhibitory concentration against Pasteurella multocida; format: functional

Structure (SMILES) | pCF | pKa [1] | MIC [2] | ED50 [3] | pNF [4] | Log K [5] | Log 1/MIC [6] | pKa [7] | pKa [8] | MIC [9]
CO[C@@H]1[C@@H](O[C@@H]2O[C@H](C)[C@@H](O[C@H]3C[C@@](C)(O)[C@@H](OC(=O)CC(C)C)[C@H](C)O3)[C@H](N(C)C)[C@H]2O)[C@@H](CC=O)C[C@@H](C)C(=O)/C=C/[C@@H]2O[C@H]2C[C@@H](C)OC(=O)C[C@H]1OC(C)=O [CARBOMYCIN A] | 0.209 | 7.61 | 1.56 µg/mL (≈ 1.85 µM) | > 150 mg/kg | 0.419 | 1.48 | – | – | – | –
CO[C@@H]1[C@@H](O[C@@H]2O[C@H](C)[C@@H](O[C@H]3C[C@@](C)(O)[C@@H](OC(=O)CC(C)C)[C@@H](C)O3)[C@@H](N(C)C)[C@H]2O)[C@@H](CC=O)C[C@@H](C)C(=O)/C=C/C=C/C[C@@H](C)OC(=O)C[C@H]1OC(C)=O | – | – | 6.25 µg/mL (≈ 7.57 µM) | > 150 mg/kg | – | – | – | – | – | –
CC[C@H]1OC(=O)CC(O)[C@H](C)[C@@H](O[C@@H]2O[C@H](C)C[C@H](N(C)C)[C@H]2O)[C@@H](CCN(C)CCN(C)C(=O)[C@H](C)N)C[C@@H](C)C(=O)/C=C/C(C)=C/[C@@H]1C (stereo partly specified) | 0.891 | 6.81 | – | – | 2.391 | 0.02 | 4.15 | 8.9 | 8.13 | –
CC[C@H]1OC(=O)CC(O)[C@H](C)[C@@H](O[C@@H]2O[C@H](C)C[C@H](N(C)C)[C@H]2O)[C@@H](CCNC2C(O)CCCC2O)C[C@@H](C)C(=O)/C=C/C(C)=C/[C@@H]1C (stereo partly specified) | 1.189 | 8.56 | – | – | 3.099 | 0.23 | 3.53 | – | 9.31 | –
CC[C@H]1OC(=O)C[C@@H](O)[C@H](C)[C@@H](O[C@@H]2O[C@H](C)[C@@H](O[C@H]3C[C@@](C)(O)[C@@H](O)[C@H](C)O3)[C@H](N(C)C)[C@H]2O)[C@@H](CC=O)C[C@@H](C)C(=O)/C=C/C(C)=C/[C@@H]1CO[C@@H]1O[C@H](C)[C@@H](O)[C@@H](OC)[C@H]1OC [TYLOSIN] | 0.167 | 7.73 | 25 µg/mL (≈ 27.3 µM) | 86 mg/kg | 0.497 | 0.68 | – | – | – | –
CC[C@H]1OC(=O)C[C@@H](O)[C@H](C)[C@@H](O[C@@H]2O[C@H](C)C[C@H](N(C)C)[C@H]2O)[C@@H](CC=O)C[C@@H](C)C(=O)/C=C/[C@]2(C)O[C@H]2[C@@H]1C [ROSARAMICIN] | 0.017 | 8.79 | 0.2 µg/mL (≈ 0.344 µM) | 68 mg/kg | 1.407 | 0.63 | – | – | – | –
CC[C@H]1OC(=O)CC(O)[C@H](C)[C@@H](O[C@@H]2O[C@H](C)C[C@H](N(C)C)[C@H]2O)[C@@H](CCNCC(C)(C)CO)C[C@@H](C)C(=O)/C=C/C(C)=C/[C@@H]1C (stereo partly specified) | 1.161 | 8.53 | – | – | 3.481 | 0.43 | 4.12 | – | 9.72 | –
CC[C@H]1OC(=O)CC(O)[C@H](C)[C@@H](O[C@@H]2O[C@H](C)C[C@H](N(C)C)[C@H]2O)[C@@H](CCNCCCN(C)C)C[C@@H](C)C(=O)/C=C/C(C)=C/[C@@H]1C (stereo partly specified) | 2.157 | 7.97 | – | – | 4.887 | 0.19 | 3.22 | 10.1 | 8.88 | –
CC[C@H]1OC(=O)CC(O)[C@H](C)[C@@H](O[C@@H]2O[C@H](C)C[C@H](N(C)C)[C@H]2O)[C@@H](CCN(C)CCCN(C)C(=O)[C@H](C)N)C[C@@H](C)C(=O)/C=C/C(C)=C/[C@@H]1C (stereo partly specified) | 1.307 | 7.03 | – | – | 3.067 | -0.16 | 3.27 | 9.16 | 8.53 | –
CC[C@H]1OC(=O)[C@H](C)[C@@H](O[C@H]2C[C@@](C)(OC)[C@@H](O)[C@H](C)O2)[C@H](C)[C@@H](O[C@@H]2O[C@H](C)C[C@H](N(C)C)[C@H]2O)[C@](C)(O)C[C@@H](C)CN(C)[C@H](C)[C@@H](O)[C@]1(C)O [AZITHROMYCIN] | 1.36 | – | – | 16 mg/kg | 3.41 | 0.38 | – | – | – | 0.05 µg/mL (≈ 0.0668 µM)
CC[C@H]1OC(=O)C[C@@H](O)[C@H](C)[C@@H](O[C@@H]2O[C@H](C)[C@@H](O)[C@@H](N(C)C)[C@H]2O)[C@@H](CC=O)C[C@@H](C)C(=O)/C=C/C(C)=C/[C@@H]1CO[C@@H]1O[C@H](C)[C@@H](O)[C@@H](OC)[C@H]1OC | 0.045 | 8.36 | – | – | 1.005 | 0.17 | 2.39 | – | – | –
CCC1OC(=O)CC(O)C(C)C(O[C@@H]2O[C@H](C)C[C@H](N(C)C)[C@H]2O)C(CC=O)CC(C)C(=O)/C=C/C(C)=C/C1C (stereo partly specified) | 0.016 | 8.83 | – | – | 1.446 | 0.86 | – | – | – | –
CC[C@H]1OC(=O)C[C@@H](O)[C@H](C)[C@@H](O[C@@H]2O[C@H](C)[C@@H](O)[C@H](N(C)C)[C@H]2O)[C@@H](CCN2C[C@H](C)C[C@H](C)C2)C[C@@H](C)C(=O)/C=C/C(C)=C/[C@@H]1CO[C@@H]1O[C@H](C)[C@@H](O)[C@@H](OC)[C@H]1OC [TILMICOSIN] | 0.847 | 8.18 | 1.56 µg/mL (≈ 1.79 µM) | 100 mg/kg | 3.007 | 0.26 | – | – | 9.56 | –
CC[C@H]1OC(=O)[C@H](C)[C@@H](O[C@H]2C[C@@](C)(OC)[C@@H](O)[C@H](C)O2)[C@H](C)[C@@H](O[C@@H]2O[C@H](C)C[C@H](N(C)C)[C@H]2O)[C@](C)(OC)C[C@@H](C)C(=O)[C@H](C)[C@@H](O)[C@]1(C)O [CLARITHROMYCIN] | 0.011 | – | 0.39 µg/mL (≈ 0.521 µM) | 100 mg/kg | 1.601 | 0.63 | – | – | – | –
CC[C@H]1OC(=O)CC(O)[C@H](C)[C@@H](O[C@@H]2O[C@H](C)C[C@H](N(C)C)[C@H]2O)[C@@H](CCN(CCCN(C)C)C(=O)[C@H](C)N)C[C@@H](C)C(=O)/C=C/C(C)=C/[C@@H]1C (stereo partly specified) | 1.938 | 7.81 | – | – | 4.138 | -0.12 | 3.27 | 9.6 | 8.78 | –
CC[C@H]1OC(=O)[C@H](C)[C@@H](O[C@H]2C[C@@](C)(OC)[C@@H](O)[C@H](C)O2)[C@H](C)[C@@H](O[C@@H]2O[C@H](C)C[C@H](N(C)C)[C@H]2O)[C@](C)(O)C[C@@H](C)C(=O)[C@H](C)[C@@H](O)[C@]1(C)O [ERYTHROMYCIN] | 0.014 | 8.88 | 0.78 µg/mL (≈ 1.06 µM) | > 150 mg/kg | 1.494 | 0.35 | – | – | – | –
CO[C@H]1C[C@H](O[C@H]2[C@H](C)[C@@H](O[C@@H]3O[C@H](C)C[C@H](N(C)C)[C@H]3O)[C@@H](C)CC3(CO3)C(=O)[C@H](C)[C@@H](O)[C@@H](C)[C@@H](C)OC(=O)[C@@H]2C)O[C@@H](C)[C@@H]1O (single isomer, unassigned) [OLEANDOMYCIN] | 0.015 | 8.84 | 6.25 µg/mL (≈ 9.09 µM) | > 150 mg/kg | 1.455 | 0.01 | – | – | – | –
CC[C@H]1OC(=O)CC(O)[C@H](C)[C@@H](O[C@@H]2O[C@H](C)C[C@H](N(C)C)[C@H]2O)[C@@H](CCNCCO)C[C@@H](C)C(=O)/C=C/C(C)=C/[C@@H]1C (stereo partly specified) | 1.217 | 8.59 | – | – | 3.437 | 0.1 | 3.79 | – | 9.62 | –
CC[C@H]1OC(=O)CC(O)[C@H](C)[C@@H](O[C@@H]2O[C@H](C)C[C@H](N(C)C)[C@H]2O)[C@@H](CCN(C)CCN(C)C)C[C@@H](C)C(=O)/C=C/C(C)=C/[C@@H]1C (stereo partly specified) | 0.863 | 5.61 | – | – | 2.413 | -0.23 | 2.44 | 8.95 | 8.19 | –
